In article PMC7760315 (Biomolecules, 2020):
Values joined by “and” are separate entries in the source; they are usually repeats but may differ in a detail not shown here. Equal entries are not always repeated. Where two headings read alike, the source gives them in different places.

Tests used:
GlyRα1/GlyT2 [1] = target: T1, GlyRα1/GlyT2 (Homo sapiens, UniProt Q9Y345); experiment: Two-electrode voltage clamp, oocytes co-expressing GlyRα1/GlyT2; type: cell-based; conditions: 1 µM inhibitor; fast-flow
T1 construct: expressed in transfected cells; host or cells: Xenopus laevis oocytes (cRNA co-injection)
T1 sequence (Q9Y345 1-797): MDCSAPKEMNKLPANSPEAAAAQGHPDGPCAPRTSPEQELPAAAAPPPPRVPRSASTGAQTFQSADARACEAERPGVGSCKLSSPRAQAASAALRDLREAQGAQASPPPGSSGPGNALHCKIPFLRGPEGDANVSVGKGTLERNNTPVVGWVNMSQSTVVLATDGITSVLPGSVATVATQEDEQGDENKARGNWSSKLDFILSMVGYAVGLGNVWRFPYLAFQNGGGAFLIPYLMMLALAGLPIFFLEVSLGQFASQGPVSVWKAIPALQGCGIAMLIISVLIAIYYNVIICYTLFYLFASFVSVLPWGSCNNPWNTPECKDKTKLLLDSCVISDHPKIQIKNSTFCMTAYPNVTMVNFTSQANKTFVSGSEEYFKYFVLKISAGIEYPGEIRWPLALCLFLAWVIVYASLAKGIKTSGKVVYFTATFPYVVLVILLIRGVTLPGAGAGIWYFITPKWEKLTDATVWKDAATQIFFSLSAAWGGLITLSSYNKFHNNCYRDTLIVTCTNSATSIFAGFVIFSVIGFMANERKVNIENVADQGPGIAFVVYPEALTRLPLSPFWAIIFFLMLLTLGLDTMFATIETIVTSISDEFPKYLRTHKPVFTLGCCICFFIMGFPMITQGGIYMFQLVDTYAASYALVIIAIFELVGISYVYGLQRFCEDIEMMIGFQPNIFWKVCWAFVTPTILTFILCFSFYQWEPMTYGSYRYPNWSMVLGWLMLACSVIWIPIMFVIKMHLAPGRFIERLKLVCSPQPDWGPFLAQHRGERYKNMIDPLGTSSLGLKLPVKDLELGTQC
Description: (§1) Human GlyT1b and GlyT2a WT cDNA were subcloned into the plasmid oocyte transcription vector (pOTV) and human GlyRα1, GlyRα3 and GlyRβ into pGEMHE. GlyR cDNA pGEMHE vectors were provided by Mary Collins at the University of Sydney (Sydney, Australia). Single point mutations were introduced into GlyRα1 using the Q5 site-directed mutagenesis kit (New England Biolabs (Genesearch), Arundel, Australia) with oligonucleotide primers (Merck, Sydney, Australia) containing the desired mutations. The amplified cDNA/pOTV or cDNA/pGEMHE product was then transformed in E. coli cells, and subsequently purified using the PureLink Quick Plasmid Miniprep Kit (Invitrogen by Life Technologies, Löhne, Germany), and sequenced by the Australian Genome Research Facility (Sydney, Australia). The purified plasmid DNA was linearised via the restriction enzyme, SpeI (New England Biolabs (Genesearch), Arundel, Australia) for GlyT1b and GlyT2a (henceforth referred to as GlyT1 and GlyT2 respectively) and NheI (New England Biolabs (Genesearch)) for GlyRα1, GlyRα3 and GlyRβ. Complementary RNAs were synthesised using the mMESAGE mMACHINE T7 kit (Ambion, Austin, TX, USA).
(§2) All work involving the use of animals was performed in accordance with the Australian Code of Practice for the Care and Use of Animals for Scientific Purposes and approved by the University of Sydney Animal Ethics Committee (Approval numbers 2016/970 and 2020/1704). […] The oocytes were then stored in frog Ringer’s solution (96 mM NaCl, 2 mM KCl, 1 mM MgCl2, 1.8 mM CaCl2, 5 mM HEPES, pH 7.5) which was supplemented with 2.5 mM sodium pyruvate, 0.5 mM theophylline, 50 μg/mL gentamicin and […] tetracycline. The oocytes were stored at 18 °C for 3–5 days, until transporter and receptor expression were adequate for measurement using the two-electrode voltage clamp technique.
(§3) GlyT1, GlyT2, GlyRα1, GlyRα3, GlyRα1β and GlyRα3β are electrogenic, allowing activation to be measured via the two-electrode voltage clamp technique. Oocytes were voltage clamped at −60 mV, and whole-cell currents generated by the substrate were recorded with a Geneclamp 500 amplifier (Axon Instruments, Foster City, CA, USA), digitised by a Powerlab 2/20 chart recorder (ADInstruments, Sydney, Australia). LabChart version 8 software (ADInstruments, Sydney, Australia) was used to visualise and process current traces. Recordings were performed in frog Ringer’s solution, except for low Na^+ experiments where Na^+ was replaced with choline. Oocytes were placed in an oval-shaped bath with a volume of 0.3 mL, with laminar flow around the oocyte at a rate of 12 mL min^−1 under gravity feed.
(§4) Varying concentrations of substrate or agonist were applied to cells in ND96. […]

GlyT2 [2] = conditions: cited from earlier work
GlyRα1-mCherry = conditions: read-out: Glycine EC50; tagged receptor alone
Description: (§7) The oocytes were then stored in frog Ringer’s solution (96 mM NaCl, 2 mM KCl, 1 mM MgCl2, 1.8 mM CaCl2, 5 mM HEPES, pH 7.5) which was supplemented with 2.5 mM sodium pyruvate, 0.5 mM theophylline, 50 μg/mL gentamicin and 100 μM mL^−1 tetracycline. The oocytes were stored at 18 °C for 3–5 days, until transporter and receptor expression were adequate for measurement using the two-electrode voltage clamp technique.

GlyRα3β/GlyT2 = GlyRα3β/GlyT2 (Homo sapiens, UniProt O75311+P48167); conditions: read-out: Fast-Flow Glycine EC50
GlyRα3β/GlyT2, sequence (O75311 34-464): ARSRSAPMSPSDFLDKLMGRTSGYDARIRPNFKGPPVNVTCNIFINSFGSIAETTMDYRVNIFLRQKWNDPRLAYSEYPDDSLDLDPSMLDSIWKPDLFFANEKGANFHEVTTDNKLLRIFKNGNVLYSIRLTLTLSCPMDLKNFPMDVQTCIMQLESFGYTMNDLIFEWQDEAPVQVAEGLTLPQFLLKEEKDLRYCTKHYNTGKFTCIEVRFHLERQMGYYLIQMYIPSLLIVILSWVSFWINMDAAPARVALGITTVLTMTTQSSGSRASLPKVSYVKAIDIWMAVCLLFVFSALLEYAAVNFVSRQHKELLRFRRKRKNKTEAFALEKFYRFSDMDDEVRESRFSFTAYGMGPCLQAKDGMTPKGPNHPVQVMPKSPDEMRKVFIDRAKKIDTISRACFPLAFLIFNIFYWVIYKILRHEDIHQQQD
GlyRα3β/GlyT2, sequence (P48167 23-497): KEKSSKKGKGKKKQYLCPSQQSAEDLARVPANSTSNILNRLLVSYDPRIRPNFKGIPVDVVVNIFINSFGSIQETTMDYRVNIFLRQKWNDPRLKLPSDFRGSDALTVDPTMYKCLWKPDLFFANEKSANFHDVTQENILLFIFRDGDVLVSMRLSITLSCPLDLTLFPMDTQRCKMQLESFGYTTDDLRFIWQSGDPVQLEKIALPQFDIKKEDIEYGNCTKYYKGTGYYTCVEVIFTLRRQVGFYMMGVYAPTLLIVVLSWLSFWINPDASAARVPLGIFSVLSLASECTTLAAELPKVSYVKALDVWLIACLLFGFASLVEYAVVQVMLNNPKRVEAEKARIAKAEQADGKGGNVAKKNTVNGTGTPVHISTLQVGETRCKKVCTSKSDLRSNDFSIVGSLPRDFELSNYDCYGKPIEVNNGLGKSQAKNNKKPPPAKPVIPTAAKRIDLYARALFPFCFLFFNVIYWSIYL
Description: (§8) Human GlyT1b and GlyT2a WT cDNA were subcloned into the plasmid oocyte transcription vector (pOTV) and human GlyRα1, GlyRα3 and GlyRβ into pGEMHE. […] Single point mutations were introduced into GlyRα1 using the Q5 site-directed mutagenesis kit (New England Biolabs (Genesearch), Arundel, Australia) with oligonucleotide primers (Merck, Sydney, Australia) containing the desired mutations. […] The purified plasmid DNA was linearised via the restriction enzyme, SpeI (New England Biolabs (Genesearch), Arundel, Australia) for GlyT1b and GlyT2a (henceforth referred to as GlyT1 and GlyT2 respectively) and NheI (New England Biolabs (Genesearch)) for GlyRα1, GlyRα3 and GlyRβ. Complementary RNAs were synthesised using the mMESAGE mMACHINE T7 kit (Ambion, Austin, TX, USA). […]
(§9) GlyT1, GlyT2, GlyRα1, GlyRα3, GlyRα1β and GlyRα3β are electrogenic, allowing activation to be measured via the two-electrode voltage clamp technique. Oocytes were voltage clamped at −60 mV, and whole-cell currents generated by the substrate were recorded with a Geneclamp 500 amplifier (Axon Instruments, Foster City, CA, USA), digitised by a Powerlab 2/20 chart recorder (ADInstruments, Sydney, Australia). […]

GlyT1 = GlyT1 (Homo sapiens, UniProt P48067); conditions: read-out: glycine EC50 (transport current); GlyT1 expressed alone
GlyT1, sequence (P48067 1-652 isoform P48067-3): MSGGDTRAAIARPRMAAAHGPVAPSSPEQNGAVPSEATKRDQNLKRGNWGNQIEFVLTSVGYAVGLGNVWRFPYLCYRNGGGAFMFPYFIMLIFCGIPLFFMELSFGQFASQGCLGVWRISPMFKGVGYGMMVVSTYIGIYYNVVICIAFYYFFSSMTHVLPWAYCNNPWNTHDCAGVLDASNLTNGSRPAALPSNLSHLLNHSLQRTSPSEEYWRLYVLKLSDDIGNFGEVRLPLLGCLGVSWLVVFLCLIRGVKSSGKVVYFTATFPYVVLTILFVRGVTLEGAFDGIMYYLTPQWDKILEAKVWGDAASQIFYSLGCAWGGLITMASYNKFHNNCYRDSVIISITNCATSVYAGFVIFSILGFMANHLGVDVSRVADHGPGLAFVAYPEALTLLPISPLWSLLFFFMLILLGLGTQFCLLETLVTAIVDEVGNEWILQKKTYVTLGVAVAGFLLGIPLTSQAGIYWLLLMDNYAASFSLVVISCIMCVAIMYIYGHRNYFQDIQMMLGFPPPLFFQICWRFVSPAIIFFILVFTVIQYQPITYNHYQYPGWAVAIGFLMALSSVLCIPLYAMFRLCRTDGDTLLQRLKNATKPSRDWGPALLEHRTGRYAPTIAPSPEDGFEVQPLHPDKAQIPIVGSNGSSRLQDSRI
Description: as §1, §2, §3
(§5) Varying concentrations of substrate or agonist were applied to cells in ND96.

GlyRα3/GlyT2 = GlyRα3/GlyT2 (Homo sapiens, UniProt O75311); conditions: read-out: Fast-Flow Glycine EC50
GlyRα3/GlyT2, sequence (O75311 34-464): as the sequence (O75311 34-464) above
Description: as §1, §2, §3, §5

GlyT2 [3] = target: GlyT2 (Homo sapiens, UniProt Q9Y345); conditions: read-out: glycine EC50 (transport current); GlyT2 expressed alone
Description: as §1, §2, §3, §5

GlyRα3/GlyT1 = GlyRα3/GlyT1 (Homo sapiens, UniProt O75311); conditions: read-out: Fast-Flow Glycine EC50
GlyRα3/GlyT1, sequence (O75311 34-464): as above
Description: as §1, §2, §3, §5

GlyRα3 = GlyRα3 (Homo sapiens, UniProt O75311); conditions: read-out: Fast-Flow Glycine EC50
GlyRα3, sequence (O75311 34-464): as above
Description: as §1, §2, §3, §5

GlyT2-GFP = conditions: read-out: Glycine EC50; tagged transporter alone
Description: as §7

GlyRα1/GlyT2 [4] = experiment: Two-electrode voltage clamp, oocytes co-expressing GlyRα1/GlyT2; type: cell-based, human; conditions: for GlyT contribution to overall peak current (current in presence of strychnine as % of current without) / GlyT contribution to stopped flow current (current in presence of strychnine as % of current without): 1 µM strychnine; for GlyT contribution to overall peak current (current in presence of strychnine as % of current without): fast-flow peak; for GlyT contribution to stopped flow current (current in presence of strychnine as % of current without): stop-flow
Description: as §1, §2, §3, §4

GlyRα3β/GlyT1 = GlyRα3β/GlyT1 (Homo sapiens, UniProt O75311+P48167); conditions: read-out: Fast-Flow Glycine EC50
GlyRα3β/GlyT1, sequence (O75311 34-464): as above
GlyRα3β/GlyT1, sequence (P48167 23-497): as the sequence (P48167 23-497) above
Description: as §8, §9

GlyRα1 [5] = target: T2, GlyRα1 (Homo sapiens, UniProt P23415); experiment: Two-electrode voltage clamp, Xenopus laevis oocytes expressing GlyRα1 alone; type: cell-based
T2 construct: expressed in transfected cells; host or cells: Xenopus laevis oocytes (cRNA injection)
T2 sequence (P23415 29-457): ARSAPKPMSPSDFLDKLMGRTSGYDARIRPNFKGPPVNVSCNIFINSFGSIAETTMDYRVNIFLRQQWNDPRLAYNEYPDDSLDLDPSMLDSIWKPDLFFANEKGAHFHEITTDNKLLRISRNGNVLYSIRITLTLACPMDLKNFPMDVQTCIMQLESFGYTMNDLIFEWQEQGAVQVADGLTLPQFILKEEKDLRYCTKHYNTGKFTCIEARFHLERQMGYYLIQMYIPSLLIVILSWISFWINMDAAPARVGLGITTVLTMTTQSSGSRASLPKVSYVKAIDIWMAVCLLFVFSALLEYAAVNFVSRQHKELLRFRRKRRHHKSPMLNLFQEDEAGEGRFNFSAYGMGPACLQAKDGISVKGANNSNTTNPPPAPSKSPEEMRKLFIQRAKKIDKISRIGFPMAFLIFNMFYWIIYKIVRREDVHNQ
Description: as §1, §2, §3, §5
(§6) Flow of the solution was stopped until the current plateaued, by manually closing a three-way valve on one end of the bath such that the solution in the bath was static and is referred to henceforth as ‘stop-flow’.

GlyRα1 [6] = conditions: cited from earlier work
GlyRα1/GlyT1 [7] = experiment: Two-electrode voltage clamp, oocytes co-expressing GlyRα1/GlyT1; type: cell-based, human; conditions: 1 µM strychnine; for GlyT contribution to overall peak current (current in presence of strychnine as % of current without): fast-flow peak; for GlyT contribution to stopped flow current (current in presence of strychnine as % of current without): stop-flow
Description: as §1, §2, §3, §5, §6

GlyRα1/GlyT2 [8] = target: GlyRα1/GlyT2 (Homo sapiens, UniProt P23415); experiment: Two-electrode voltage clamp, oocytes co-expressing GlyRα1/GlyT2; type: cell-based
Description: as §1, §2, §3, §4

GlyRα1/GlyT1 [9] = target: T3, GlyRα1/GlyT1 (Homo sapiens, UniProt P23415); experiment: Two-electrode voltage clamp, oocytes co-expressing GlyRα1/GlyT1; type: cell-based; conditions: non-transportable GlyR agonist; read-out: β-alanine EC50
T3 construct: expressed in transfected cells; host or cells: Xenopus laevis oocytes (cRNA co-injection)
T3 sequence (P23415 29-457): T2 sequence (P23415 29-457)
Description: as §1, §2, §3, §5, §6

SMILES: COc1cc(C(=O)NCC2(N(C)C)CCCC2)cc(OC)c1OCc1ccccc1 [ORG-25543]
- nH of glycine dose-response in the presence of GlyT inhibitor (GlyRα1/GlyT2 [1]): 2.6 ± 0.4 ns
- IC50 (GlyT2 [2]): 0.016 µM

SMILES: NCC(=O)O [glycine]
- EC50 (GlyRα1-mCherry): 15.7 µM
- EC50 (GlyRα3β/GlyT2): 224 µM
- EC50 (GlyT1): ~35 µM
- EC50 (GlyRα3/GlyT2): 160 µM
- EC50 (GlyT2 [3]): 21.8 µM and ~30 µM
- EC50 (GlyRα3/GlyT1): 154 µM
- EC50 (GlyRα3): 64.8 µM
- EC50 (GlyT2-GFP): 28.1 µM
- EC50 (GlyRα1/GlyT2 [4]; read-out: Fast-Flow Glycine EC50): 30.9 µM and 41.6 µM and 34.1 µM and 27.9 µM and 27.3 µM
- EC50 (GlyRα1/GlyT2 [4]; read-out: Glycine EC50): 23 µM
- EC50 (GlyRα1/GlyT2 [4]; read-out: Stop-Flow Glycine EC50): 83.1 µM
- EC50 (GlyRα3β/GlyT1): 220 µM
- Peak Current (GlyRα1 [5]): 740.6 ± 105.9 nA
- EC50 (GlyRα1 [6]; read-out: glycine EC50, ref 51): 24 µM
- EC50 (GlyRα1 [6]; read-out: glycine EC50, ref 52): 42 µM
- EC50 (GlyRα1 [6]; read-out: glycine EC50 values in oocytes, variable with maximal current): 20 to 280 µM

SMILES: O=C1C[C@@H]2OCC=C3CN4CC[C@]56c7ccccc7N1[C@H]5[C@H]2[C@H]3C[C@H]46 [strychnine]
- GlyT contribution to overall peak current (current in presence of strychnine as % of current without) (GlyRα1/GlyT2 [4]; 10 µM glycine): 16.6 ± 3.7%
- GlyT contribution to stopped flow current (current in presence of strychnine as % of current without) (GlyRα1/GlyT2 [4]; 10 µM glycine): 16.2 ± 2.1%
- GlyT contribution to overall peak current (current in presence of strychnine as % of current without) (GlyRα1/GlyT2 [4]; 30 µM glycine): 1.7 ± 0.4%
- GlyT contribution to stopped flow current (current in presence of strychnine as % of current without) (GlyRα1/GlyT2 [4]; 30 µM glycine): 1.6 ± 0.4%
- GlyT contribution to overall peak current (current in presence of strychnine as % of current without) (GlyRα1/GlyT1 [7]; 10 µM glycine): 53.2 ± 6.9%
- GlyT contribution to stopped flow current (current in presence of strychnine as % of current without) (GlyRα1/GlyT1 [7]; 10 µM glycine): 61.5 ± 13.9%
- GlyT contribution to overall peak current (current in presence of strychnine as % of current without) (GlyRα1/GlyT1 [7]; 30 µM glycine): 14.4 ± 1.8%
- GlyT contribution to stopped flow current (current in presence of strychnine as % of current without) (GlyRα1/GlyT1 [7]; 30 µM glycine): 5.2 ± 1.3%

SMILES: NCCC(=O)O [β-alanine]
- EC50 (GlyRα1/GlyT2 [8]): 27.4 µM
- EC50 (GlyRα1/GlyT1 [9]): 28 µM
- EC50 (GlyRα1 [5]; non-transportable GlyR agonist, read-out: β-alanine EC50): 28.3 µM
